Here are results for one compound from patent US20190142886A1, “Ecklonia cava extract and a pharmaceutical composition for preventing or treating vascular diseases comprising the same as an active ingredient” (Gachon University of Industry-Academic Cooperation …, priority 2017, published 2019).

Each structure is given as a SMILES string.

The test system of assay [1] is mouse-derived vascular endothelial cells (SVEC4-10). The assay can be described thus: PPB in vascular endothelial cell death model (palmitic acid), MTT assay. It counts as cell-based. The note with it: 0.25 mM palmitic acid, 24 hours. As to the method:
Mouse-derived vascular endothelial cells (SVEC4-10) in DMEM (Dulbecco's Modified Eagle Medium) supplemented with 10% fetal bovine serum and 1% antibiotics (penicillin/streptomycin) were cultured in a 37° C., 5% CO2 incubator. To obtain sufficient cells, the cells were cultured in 100 Ø plastic dishes. When the cells were cultured until the bottom of the dish was covered 80% by the cells, the adhered cells were detached using trypsin/EDTA solution and then sub-cultured.
The mouse-derived vascular endothelial cells (SVEC4-10) obtained in Example <5-1> were treated with 0.25 mM palmitic acid, leading to the construction of a vascular endothelial cell death model (in vitro).
The cells were treated with PPB at different concentrations for 24 hours. 24 hours later, MTT assay was performed to confirm the number of survived cells. From the result, the effect of PPB on the survival of vascular endothelial cells in the presence of palmitic acid was analyzed.
(Tetrazolium dyes change colour on reduction, which living cells bring about.)

Another assay concerns fat cell. The assay can be described thus: Fat cell size in obesity-induced ob/ob mouse model (H&E staining). In kind it is in vivo. The note with it: ob/ob mice, oral 2.5 mg/kg, 42 days; vs saline group, p<0.005. The source says:
(§1) 6-week-old male ob/ob mice were selected. Weight gain was induced by a general diet for 6 weeks. Then, the effect of the PPB prepared in Example 1 was investigated.
(§2) Particularly, the mice were adapted to the animal room environment for 1 week. Then, the mice were divided into two groups, which were fed with a general diet for 42 days (6 weeks). These two groups were the control (saline group) that was fed with a general diet and orally administered with saline and the experimental group (PPB group) that was fed with a general diet and orally administered with PPB at the dose of 2.5 mg/kg.
The adipose tissues were obtained from the mice of the control group and the PPB-treated experimental group prepared in Example <4-1>, and the changes of fat cell size were observed.
Particularly, the adipose tissues obtained from the mice of the control and experimental groups were made into a paraffin block, which was sectioned in the thickness of 7 μm, followed by hematoxylin-eosin staining (H&E staining). The stained tissues were photographed with Axio Imager Z1 upright microscopy system and the cell size was measured by using ImageJ 1.50i software.

The test system of the next assay is liver tissue. The experiment in a line: Fat accumulation in liver tissue of ob/ob mouse (Oil-red-O). It counts as in vivo. The note with it: ob/ob mice, oral 2.5 mg/kg, 42 days; vs saline group, p<0.005.
From the text: as §1, §2
The liver tissues were obtained from the mice of the control group and the experimental group prepared in Example <4-1>. The obtained liver tissues were made into a frozen block, which was sectioned in the thickness of 10 μm. The tissue sections were stained with 0.375% (w/v) Oil-red-O powder. The stained tissues were photographed with Axio Imager Z1 upright microscopy system and the fat accumulation area was measured by using ImageJ 1.50i software.

Assay [2] concerns Plasminogen activator inhibitor type-1 (PAI-1). The experiment in a line: Plasma PAI-1 level in ob/ob mouse by ELISA kit. The note with it: ob/ob mice, oral 2.5 mg/kg, 42 days; compared with saline control group. It counts as in vivo.
From the text: as §1, §2
In order to measure PAI-1, the biomarker for improving blood circulation, blood was collected from the mouse, and the plasma PAI-1 level was measured by using an ELISA kit.
On the technique in general: In an ELISA, binding on a coated surface is turned into a signal by an enzyme label.

For `Oc1cc(O)cc(Oc2c(O)cc(Oc3cc(O)cc(Oc4c(O)cc(O)c5c4Oc4c(O)cc(O)c(-c6c(O)cc(O)c7c6Oc6c(O)cc(O)c(Oc8cc(O)cc(O)c8)c6O7)c4O5)c3)cc2O)c1` [PPB, pyrogallol-phloroglucinol-6,6-bieckol], in assay [1] (5 ug/ml, vs control non-treated with PPB), the “number of survived cells” value was “not much different”. Besides, the “survival rate of vascular endothelial cells” value in assay [1] (10 ug/ml) was “significantly increased”. For the same compound, in the assay on fat cell, the fat cell size entry is reported as “significantly decreased”. In addition, the “fat accumulation area in liver tissue” value in the assay on liver tissue is “significantly decreased”. Moreover, in assay [2], the “blood PAI-1 level” value is on record as “reduced”.
